Test results from US20230149415A1, “METHODS AND COMPOSITIONS FOR TREATING CANCER” (Engine Biosciences Pte. Ltd., priority 2020, published 2023).

Experiments:
[1] = molecular target: T1, PKMYT1 (Homo sapiens, UniProt Q99640); assay: selective binding assay for PKMYT1; details: in vitro potency
T1 sequence (Q99640 1-499): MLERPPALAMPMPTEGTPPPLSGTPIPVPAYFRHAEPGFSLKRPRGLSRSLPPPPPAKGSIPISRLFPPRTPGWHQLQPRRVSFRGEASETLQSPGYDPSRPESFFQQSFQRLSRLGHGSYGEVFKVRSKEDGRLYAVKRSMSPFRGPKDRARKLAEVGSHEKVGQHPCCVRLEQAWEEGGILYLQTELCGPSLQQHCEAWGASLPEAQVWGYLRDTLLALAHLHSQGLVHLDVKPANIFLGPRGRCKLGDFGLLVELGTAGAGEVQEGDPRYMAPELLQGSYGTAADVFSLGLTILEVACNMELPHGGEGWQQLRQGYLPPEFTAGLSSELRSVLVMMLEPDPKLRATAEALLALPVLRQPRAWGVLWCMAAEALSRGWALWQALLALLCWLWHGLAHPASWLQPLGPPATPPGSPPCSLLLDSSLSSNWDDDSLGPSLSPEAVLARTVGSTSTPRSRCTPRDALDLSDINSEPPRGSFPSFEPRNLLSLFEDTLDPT

[2] = molecular target: Wee1 (Homo sapiens, UniProt P30291); assay: selective binding assay for Wee1; details: in vitro potency
Wee1, sequence (P30291 whole entry): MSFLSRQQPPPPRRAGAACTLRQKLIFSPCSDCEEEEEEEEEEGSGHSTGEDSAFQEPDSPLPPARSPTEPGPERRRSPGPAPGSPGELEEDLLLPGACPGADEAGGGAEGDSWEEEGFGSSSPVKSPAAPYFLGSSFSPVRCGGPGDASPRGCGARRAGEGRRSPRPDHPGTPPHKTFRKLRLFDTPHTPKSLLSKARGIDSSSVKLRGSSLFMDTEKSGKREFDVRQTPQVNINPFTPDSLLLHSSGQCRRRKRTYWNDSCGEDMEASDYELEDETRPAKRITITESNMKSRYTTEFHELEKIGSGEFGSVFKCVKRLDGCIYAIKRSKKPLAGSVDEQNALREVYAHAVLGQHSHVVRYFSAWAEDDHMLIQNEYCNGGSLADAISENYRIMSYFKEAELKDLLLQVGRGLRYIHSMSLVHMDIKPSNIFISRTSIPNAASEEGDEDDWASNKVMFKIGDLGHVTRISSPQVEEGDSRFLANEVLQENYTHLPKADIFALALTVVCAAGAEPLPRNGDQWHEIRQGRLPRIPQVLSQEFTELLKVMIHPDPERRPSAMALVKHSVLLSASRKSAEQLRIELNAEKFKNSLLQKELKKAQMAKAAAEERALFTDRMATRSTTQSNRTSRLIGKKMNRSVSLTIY

| IC50 [1] [nM] | IC50 [2] [nM] | Compound |
| --- | --- | --- |
| 8.2 |  | CCN(CC)CCOc1ccc(Nc2ncc3cc(-c4c(Cl)cccc4Cl)c(=O)n(C)c3n2)cc1 [PD0166285, 6-(2,6-dichlorophenyl)-2-((4-(2-(diethylamino)ethoxy)phenyl)amino)-8-methylpyrido[2,3-d]pyrimidin-7(8H)-one] |
| 46 | 5.3 | Cn1c(=O)c(-c2c(Cl)cccc2Cl)cc2cnc(Nc3ccc(N4CCOCC4)cc3)nc21 [PD173952, 6-(2,6-dichlorophenyl)-8-methyl-2-((4-morpholinophenyl)amino)pyrido[2,3-d]pyrimidin-7(8H)-one] |
